In US6737383B1, “Herbicidal oxadiazolidines” (priority 1999, dated 2004):

How the values were obtained:
[1] = tested on: morningglory; test: Test B pre/postemergence morningglory; format: in vivo, Ipomoea hederacea
Outline: (§1)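 Response is a visual 0-to-10 score relative to untreated plants, where 0 means no effect and 10 means complete control, taken twelve to sixteen days after application. Treatments went onto soil at planting and onto foliage of 1- to 4-leaf plants, using a surfactant-containing non-phytotoxic solvent.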

[2] = tested on: purple nutsedge; test: Test B pre/postemergence purple nutsedge; format: in vivo, Cyperus rotundus
Outline: as §1

[3] = tested on: crabgrass; test: Test B pre/postemergence crabgrass; format: in vivo, Digitaria sanguinalis
Outline: as §1

[4] = tested on: giant foxtail; test: Test B pre/postemergence giant foxtail; format: in vivo, Setaria faberii
Outline: as §1

[5] = tested on: blackgrass; test: Test B pre/postemergence blackgrass; format: in vivo, Alopecurus myosuroides
Outline: as §1

[6] = tested on: corn; test: Test B pre/postemergence corn; format: in vivo, Zea mays
Outline: as §1

[7] = tested on: pigweed; test: Test B pre/postemergence pigweed; format: in vivo, Amaranthus retroflexus
Outline: as §1

[8] = tested on: rice; test: Test B flood test rice; format: in vivo, Oryza sativa
Outline: (§2)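 Each value is a visual injury score relative to controls, with 10 meaning complete control and 0 no effect. Evaluation took place twelve to sixteen days after the 2-leaf-stage plants were treated and kept in the greenhouse.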

[9] = tested on: bedstraw; test: Test B pre/postemergence bedstraw; format: in vivo, Galium aparine
Outline: as §1

[10] = tested on: soybean; test: Test B pre/postemergence soybean; format: in vivo, Glycine max
Outline: as §1

[11] = tested on: wild oat; test: Test B pre/postemergence wild oat; format: in vivo, Avena fatua
Outline: as §1

[12] = tested on: velvetleaf; test: Test B pre/postemergence velvetleaf; format: in vivo, Abutilon theophrasti
Outline: as §1

[13] = tested on: duck salad; test: Test B flood test duck salad; format: in vivo, Heteranthera limosa
Outline: as §2

[14] = tested on: surinam grass; test: Test B pre/postemergence surinam grass; format: in vivo, Brachiaria decumbens
Outline: as §1

[15] = tested on: rape; test: Test B pre/postemergence rape; format: in vivo, Brassica napus
Outline: as §1

[16] = tested on: wheat; test: Test B pre/postemergence wheat; format: in vivo, Triticum aestivum
Outline: as §1

[17] = Postemergence, Rate 62 g/ha, scale 0 to 10, 0 is no effect, 10 is complete control
[18] = Postemergence, Rate 125 g/ha, scale of 0 to 10 where 0 is no effect and 10 is complete control
[19] = Postemergence, Rate 250 g/ha, scale of 0 to 10, 0 is no effect, 10 is complete control
[20] = Postemergence, Rate 500 g/ha, scale of 0 to 10 where 0 is no effect and 10 is complete control
[21] = Preemergence, Rate 62 g/ha, scale 0 to 10 (0 no effect, 10 complete control)
[22] = Preemergence, Rate 125 g/ha, scale of 0 to 10 where 0 is no effect and 10 is complete control
[23] = Preemergence, Rate 500 g/ha, scale of 0 to 10 where 0 is no effect and 10 is complete control
[24] = Rate 62 g/ha, flood test species, Pre-emergence, visual evaluation after twelve to sixteen days
[25] = Rate 125 g/ha, under heading Pre-emergence, flood test species, visual evaluation after twelve to sixteen days
[26] = Rate 250 g/ha, Pre-emergence (flood test species), scale 0 to 10, 0 is no effect, 10 is complete control
[27] = Rate 500 g/ha, Pre-emergence section of Table B, 0 to 10 scale (0 no effect, 10 complete control)

CC(C)N(C(=O)n1oc(=O)n(CC2=NOCCC2)c1=O)c1ccc(F)cc1F [Compound 602]
Plant response rating, Morningglory [1, 17]: 0
Plant response rating, Morningglory [1, 18]: 1
Morningglory plant response rating [1, 19]: 2
Plant response rating, Morningglory [1, 20]: 3
Morningglory plant response rating [1, 21]: 0
Morningglory plant response rating [1, 22]: 0
Plant response rating, Morningglory [1, 23]: 0
Plant response rating, Nutsedge [2, 17]: 0
Plant response rating, Nutsedge [2, 18]: 0
Nutsedge plant response rating [2, 19]: 0
Plant response rating, Nutsedge [2, 20]: 0
Nutsedge plant response rating [2, 21]: 0
Nutsedge plant response rating [2, 22]: 0
Plant response rating, Nutsedge [2, 23]: 0
Plant response rating, Crabgrass [3, 17]: 2
Plant response rating, Crabgrass [3, 18]: 4
Crabgrass plant response rating [3, 19]: 4
Plant response rating, Crabgrass [3, 20]: 9
Crabgrass plant response rating [3, 21]: 7
Crabgrass plant response rating [3, 22]: 8
Plant response rating, Crabgrass [3, 23]: 10
Plant response rating, Giant foxtail [4, 17]: 1
Plant response rating, Giant foxtail [4, 18]: 8
Giant foxtail plant response rating [4, 19]: 9
Plant response rating, Giant foxtail [4, 20]: 9
Giant foxtail plant response rating [4, 21]: 9
Giant foxtail plant response rating [4, 22]: 9
Plant response rating, Giant foxtail [4, 23]: 10
Plant response rating, Blackgrass [5, 17]: 4
Plant response rating, Blackgrass [5, 18]: 6
Blackgrass plant response rating [5, 19]: 8
Plant response rating, Blackgrass [5, 20]: 9
Blackgrass plant response rating [5, 21]: 0
Blackgrass plant response rating [5, 22]: 4
Blackgrass plant response rating (0 to 10 scale) ([5]; Preemergence, Rate 250 g/ha): 6
Blackgrass plant response rating [5, 23]: 9
Plant response rating, Corn [6, 17]: 0
Plant response rating, Corn [6, 18]: 0
Corn plant response rating [6, 19]: 0
Plant response rating, Corn [6, 20]: 0
Corn plant response rating [6, 21]: 0
Corn plant response rating [6, 22]: 0
Corn plant response rating (0 to 10 scale) ([6]; Preemergence, Rate 250 g/ha): 0
Plant response rating, Corn [6, 23]: 2
Plant response rating, Redroot pigweed [7, 17]: 2
Plant response rating, Redroot pigweed [7, 18]: 2
Redroot pigweed plant response rating [7, 19]: 3
Plant response rating, Redroot pigweed [7, 20]: 6
Redroot pigweed plant response rating [7, 21]: 2
Redroot pigweed plant response rating [7, 22]: 7
Plant response rating, Redroot pigweed [7, 23]: 8
Plant response rating, Rice (0 to 10 scale, 0 is no effect, 10 is complete control) [8, 24]: 0
Rice plant response rating (0 to 10 scale, 0 is no effect, 10 is complete control) [8, 25]: 0
Rice plant response rating [8, 26]: 0
Rice plant response rating [8, 27]: 0
Plant response rating, Bedstraw [9, 18]: 3
Bedstraw plant response rating [9, 19]: 3
Bedstraw plant response rating [9, 21]: 0
Bedstraw plant response rating [9, 22]: 0
Bedstraw plant response rating (0 to 10 scale) ([9]; Preemergence, Rate 250 g/ha): 0
Bedstraw plant response rating [9, 23]: 0
Plant response rating, Soybean [10, 17]: 3
Plant response rating, Soybean [10, 18]: 3
Soybean plant response rating [10, 19]: 5
Plant response rating, Soybean [10, 20]: 7
Soybean plant response rating [10, 22]: 0
Plant response rating, Soybean [10, 23]: 0
Plant response rating, Wild oats [11, 17]: 0
Plant response rating, Wild oats [11, 18]: 0
Wild oats plant response rating [11, 19]: 0
Plant response rating, Wild oats [11, 20]: 3
Wild oats plant response rating [11, 21]: 0
Wild oats plant response rating [11, 22]: 3
Plant response rating, Wild oats [11, 23]: 8
Plant response rating, Velvetleaf [12, 17]: 0
Plant response rating, Velvetleaf [12, 18]: 0
Velvetleaf plant response rating [12, 19]: 0
Plant response rating, Velvetleaf [12, 20]: 0
Velvetleaf plant response rating [12, 21]: 0
Velvetleaf plant response rating [12, 22]: 6
Plant response rating, Velvetleaf [12, 23]: 6
Plant response rating, Ducksalad (0 to 10 scale, 0 is no effect, 10 is complete control) [13, 24]: 0
Ducksalad plant response rating (0 to 10 scale, 0 is no effect, 10 is complete control) [13, 25]: 0
Ducksalad plant response rating [13, 26]: 0
Ducksalad plant response rating [13, 27]: 0
Plant response rating, B. signalgrass [14, 17]: 0
Plant response rating, B. signalgrass [14, 18]: 2
B. signalgrass plant response rating [14, 19]: 5
Plant response rating, B. signalgrass [14, 20]: 7
B. signalgrass plant response rating [14, 21]: 0
B. signalgrass plant response rating [14, 22]: 4
B. signalgrass plant response rating (0 to 10 scale, 0 is no effect, 10 is complete control) ([14]; Preemergence, Rate 250 g/ha): 7
B. signalgrass plant response rating [14, 23]: 7
Plant response rating, Rape [15, 17]: 0
Plant response rating, Rape [15, 18]: 0
Rape plant response rating [15, 19]: 0
Plant response rating, Rape [15, 20]: 0
Rape plant response rating [15, 21]: 0
Rape plant response rating [15, 22]: 0
Plant response rating, Rape [15, 23]: 3
Plant response rating, Wheat [16, 17]: 0
Plant response rating, Wheat [16, 18]: 0
Wheat plant response rating [16, 19]: 0
Plant response rating, Wheat [16, 20]: 0
Wheat plant response rating [16, 21]: 0
Wheat plant response rating [16, 22]: 0
Plant response rating, Wheat [16, 23]: 0
